# Tests used:
# Type in all cases: in vivo
# Solanum nigrum (SOLNI) [1] = assay: Post-emergence herbicide test, glasshouse, percentage damage; details: 1000 g/ha, evaluated after 13 days
# Summary of the method: (§1)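 Pot-grown plants were sprayed at 500 g/ha unless otherwise stated, in acetone/water (50:50) with 0.5% Tween 20. Pre-emergence spraying was 1 day after sowing and post-emergence after 8 days, in a glasshouse at 24/16° C, 14 h light, 65% humidity. Percentage damage was scored 13 days later on a 1–5 scale (5=81-100%).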
# [2] = tested on: Amaranthus retoflexus (AMARE); assay: as above; details: 1000 g/ha, evaluated after 13 days
# Summary of the method: as §1
# Lolium perenne (LOLPE) [3] = assay: as above; details: 1000 g/ha, evaluated after 13 days
# Summary of the method: as §1
# [4] = tested on: Ipomoea hederacea (IPOHE); assay: as above; details: 1000 g/ha, evaluated after 13 days
# Summary of the method: as §1
# Setaria faberi (SETFA) [5] = assay: as above; details: 1000 g/ha, evaluated after 13 days
# Summary of the method: as §1
# [6] = tested on: Echinochloa crus-galli (ECHCG); assay: as above; details: 1000 g/ha, evaluated after 13 days
# Summary of the method: as §1
# Solanum nigrum (SOLNI) [7] = assay: Pre-emergence herbicide test, glasshouse, percentage damage; details: rate 1000 g/ha, evaluated after 13 days
# Summary of the method: as §1
# [8] = tested on: Amaranthus retoflexus (AMARE); assay: as above; details: rate 1000 g/ha, evaluated after 13 days
# Summary of the method: as §1
# Lolium perenne (LOLPE) [9] = assay: as above; details: rate 1000 g/ha, evaluated after 13 days
# Summary of the method: as §1
# [10] = tested on: Ipomoea hederacea (IPOHE); assay: as above; details: rate 1000 g/ha, evaluated after 13 days
# Summary of the method: as §1
# Setaria faberi (SETFA) [11] = assay: as above; details: rate 1000 g/ha, evaluated after 13 days
# Summary of the method: as §1
# [12] = tested on: Echinochloa crus-galli (ECHCG); assay: as above; details: rate 1000 g/ha, evaluated after 13 days
# Summary of the method: as §1
Structure (SMILES),"percentage damage caused to the plant, SOLNI (Solanum nigrum (SOLNI) [1])","percentage damage caused to the plant, AMARE [2]","percentage damage caused to the plant, LOLPE (Lolium perenne (LOLPE) [3])","percentage damage caused to the plant, IPOHE [4]","percentage damage caused to the plant, SETFA (Setaria faberi (SETFA) [5])","percentage damage caused to the plant, ECHCG [6]",Pre-emergence Test SOLNI percentage damage (five point scale) (Solanum nigrum (SOLNI) [7]),Pre-emergence Test AMARE percentage damage (five point scale) [8],Pre-emergence Test LOLPE percentage damage (five point scale) (Lolium perenne (LOLPE) [9]),Pre-emergence Test IPOHE percentage damage (five point scale) [10],Pre-emergence Test SETFA percentage damage (five point scale) (Setaria faberi (SETFA) [11]),Pre-emergence Test ECHCG percentage damage (five point scale) [12]
Fc1cc(Cl)cnc1Oc1cccc(F)c1-c1cc(C(F)F)on1 [Compound A30],5 (5=81-100%),5 (5=81-100%),5 (5=81-100%),5 (5=81-100%),5 (5=81-100%),5 (5=81-100%),5 (5=81-100%),5 (5=81-100%),5 (5=81-100%),5 (5=81-100%),5 (5=81-100%),5 (5=81-100%)
Fc1cc(Cl)cnc1Oc1cccc(F)c1-c1cc(C(F)(F)F)no1 [Compound A31],5 (5=81-100%),5 (5=81-100%),5 (5=81-100%),5 (5=81-100%),5 (5=81-100%),5 (5=81-100%),5 (5=81-100%),5 (5=81-100%),5 (5=81-100%),5 (5=81-100%),5 (5=81-100%),5 (5=81-100%)
N#Cc1cccc(Oc2ccc(Cl)cn2)c1-n1cc(C(F)(F)F)cn1 [Compound A32],5 (5=81-100%),5 (5=81-100%),5 (5=81-100%),5 (5=81-100%),5 (5=81-100%),5 (5=81-100%),5 (5=81-100%),5 (5=81-100%),4 (4=61-80%),5 (5=81-100%),5 (5=81-100%),5 (5=81-100%)
"N#Cc1cccc(Oc2ncc(Cl)cc2F)c1-n1cc(C(F)(F)F)cn1 [Compound A33, 3-[(5-chloro-3-fluoro-2-pyridyl)oxy]-2-[4-(trifluoromethyl)pyrazol-1-yl]benzonitrile]",5 (5=81-100%),5 (5=81-100%),5 (5=81-100%),5 (5=81-100%),5 (5=81-100%),5 (5=81-100%),5 (5=81-100%),5 (5=81-100%),4 (4=61-80%),2 (2=21-40%),5 (5=81-100%),5 (5=81-100%)
N#Cc1cccc(Oc2ncc(F)cc2F)c1-n1cc(C(F)(F)F)cn1 [Compound A34],5 (5=81-100%),5 (5=81-100%),5 (5=81-100%),5 (5=81-100%),5 (5=81-100%),5 (5=81-100%),5 (5=81-100%),5 (5=81-100%),5 (5=81-100%),5 (5=81-100%),5 (5=81-100%),5 (5=81-100%)

# Source: patent US12227495B2, “Herbicidal compounds” (SYNGENTA CROP PROTECTION AG, priority 2018, dated 2025)
